Test results reported in patent publication US10023613B2, “Peptidomimetic macrocycles as modulators of MCL-1” (AILERON Therapeutics, Inc., priority 2015, dated 2018).
Bridge positions count the residues as written; N and C are the ends. Square brackets hold non-standard residues; d marks the D form. Peptide text beside a SMILES is read from it. R8 = C=CCCCCCC[C@@](C)(N)C(=O)O; S5 = C=CCCC[C@](C)(N)C(=O)O

System: Human Raji cells
Assay type: cell-based
Conditions: Raji Cell Viability, 48 h, 5% serum
Experimental: BIM peptidomimetic macrocycles were tested for cell killing at various concentrations. Human Raji cells were treated with increasing doses of peptidomimetic macrocycles corresponding to SEQ ID NO. 763 (FIGS. 1 and 2), 1143 (FIGS. 1-3), and 1621 (FIGS. 3 and 4). An % Viable cells was calculated for each dose of the peptidomimetic macrocycle from a non-linear fit of response vs dose (GraphPad Prism). […]

CC[C@H](C)[C@H](NC(C)=O)C(=O)N[C@@H](Cc1c[nH]c2ccccc12)C(=O)N[C@H](C(=O)N[C@@H](C)C(=O)N[C@@H](CCC(N)=O)C(=O)N[C@@H](C)C(=O)N[C@@H](CC(C)C)C(=O)N[C@@H](CCCNC(=N)N)C(=O)N[C@]1(C)CCCCCCC=CCCC[C@@](C)(C(=O)N[C@@H](Cc2ccc(O)cc2)C(=O)N[C@@H](Cc2ccc(O)cc2)C(=O)N[C@@H](C)C(N)=O)NC(=O)[C@H](CC(N)=O)NC(=O)[C@H](Cc2ccccc2)NC(=O)[C@H](CCC(=O)O)NC(=O)[C@H](CC(=O)O)NC(=O)CNC(=O)[C@H]([C@@H](C)CC)NC1=O)[C@@H](C)CC [compound 1647] (Ac-IWIAQALR[R8]IGDEFN[S5]YYA-NH2; staple 9-16)
EC50: > 40 µM
